Results reported in the supplement of paper PMC10307832.

Key:
Assay in all cases: relative viability (nuclei count vs DMSO), 5 days (fraction); higher = more cells survive
[1] = compound: COc1cc2nccc(Oc3ccc(NC(=O)C4(C(=O)Nc5ccc(F)cc5)CC4)cc3)c2cc1OC [Cabozantinib] + C[C@]1(O)C[C@@H](c2nc(-c3ccc4ccc(-c5ccccc5)nc4c3)c3c(N)nccn32)C1 [Linsitinib] (partner 1 µM)
How it was run: (§1)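 Relative viability was taken as the ratio of nuclei in treated wells to nuclei in vehicle wells. Lung cancer cell lines in 1536-well plates received compounds by pin tool one day after seeding, either one drug alone or a fixed anchor-drug dose plus five library-drug doses (not always all listed) in √10 steps. Nuclei were counted on 4× images after 5 days of treatment, and values are medians of duplicate plates.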

Zosuquidar + OSI-027 = compound: O[C@@H](COc1cccc2ncccc12)CN1CCN([C@@H]2c3ccccc3[C@@H]3[C@H](c4ccccc42)C3(F)F)CC1 [Zosuquidar] + COc1cccc2cc(-c3nc([C@H]4CC[C@H](C(=O)O)CC4)n4ncnc(N)c34)[nH]c12 [OSI-027] (partner 0.5 µM)
How it was run: as §1

Zosuquidar + AZD7762 = compound: O[C@@H](COc1cccc2ncccc12)CN1CCN([C@@H]2c3ccccc3[C@@H]3[C@H](c4ccccc42)C3(F)F)CC1 [Zosuquidar] + NC(=O)Nc1cc(-c2cccc(F)c2)sc1C(=O)N[C@H]1CCCNC1 [AZD7762] (partner 0.2 µM)
How it was run: as §1

Zosuquidar + Pemetrexed = compound: O[C@@H](COc1cccc2ncccc12)CN1CCN([C@@H]2c3ccccc3[C@@H]3[C@H](c4ccccc42)C3(F)F)CC1 [Zosuquidar] + Nc1nc2[nH]cc(CCc3ccc(C(=O)N[C@@H](CCC(=O)O)C(=O)O)cc3)c2c(=O)[nH]1 [Pemetrexed] (partner 0.2 µM)
How it was run: as §1

Row | Cell Line | relative viability ([1]; first compound 0.02 µM) | relative viability ([1]; first compound 0.06325 µM) | relative viability ([1]; first compound 0.6325 µM) | relative viability ([1]; first compound 2 µM) | relative viability (Zosuquidar + OSI-027; first compound 0.01 µM) | relative viability (Zosuquidar + OSI-027; first compound 0.03162 µM) | relative viability (Zosuquidar + OSI-027; first compound 0.1 µM) | relative viability (Zosuquidar + OSI-027; first compound 0.3162 µM) | relative viability (Zosuquidar + OSI-027; first compound 1 µM) | relative viability (Zosuquidar + AZD7762; first compound 0.01 µM) | relative viability (Zosuquidar + AZD7762; first compound 0.03162 µM) | relative viability (Zosuquidar + AZD7762; first compound 0.1 µM) | relative viability (Zosuquidar + AZD7762; first compound 0.3162 µM) | relative viability (Zosuquidar + AZD7762; first compound 1 µM) | relative viability (Zosuquidar + Pemetrexed; first compound 0.01 µM) | relative viability (Zosuquidar + Pemetrexed; first compound 0.03162 µM) | relative viability (Zosuquidar + Pemetrexed; first compound 0.1 µM) | relative viability (Zosuquidar + Pemetrexed; first compound 0.3162 µM) | relative viability (Zosuquidar + Pemetrexed; first compound 1 µM) | relative viability ([1]; first compound 0.2 µM)
1 | H3255 | 1.16 | 0.966 | 1.01 | 1.1 | 0.639 | 0.532 | 0.451 | 0.624 | 0.565 | 1.03 | 0.832 | 0.766 | 0.95 | 0.795 | 0.574 | 0.569 | 0.506 | 0.574 | 0.535 | –
2 | NCI-H1915 | 1.1 | 1.12 | 1.01 | 1.12 | 0.642 | 0.624 | 0.529 | 0.637 | 0.599 | 0.714 | 0.699 | 0.613 | 0.816 | 0.756 | 0.518 | 0.527 | 0.413 | 0.489 | 0.474 | 1.09
3 | NCI-H2126 | 0.727 | 0.755 | 0.733 | 0.701 | 0.736 | 0.982 | – | 0.684 | 0.787 | 1.03 | 1 | 0.911 | 1.04 | 1.01 | 0.677 | 0.625 | 0.51 | 0.697 | 0.737 | 0.735
4 | PC-14 | 1.09 | 1 | 0.961 | 0.927 | 0.903 | 0.714 | 0.826 | 1.02 | 0.78 | 0.3 | 0.372 | 0.314 | 0.363 | 0.344 | 0.119 | 0.147 | 0.134 | 0.128 | 0.142 | –
5 | EMC-BAC-2 | 0.842 | 0.853 | 0.834 | 0.797 | 0.365 | 0.365 | 0.373 | 0.435 | 0.376 | 1.1 | 1.15 | 1.11 | 1.26 | 0.979 | 0.459 | 0.417 | 0.441 | 0.457 | 0.335 | 0.775
6 | NCI-H1437 | 1.12 | 1.26 | 1.13 | 0.982 | 0.865 | 0.889 | 0.765 | 1.12 | 0.871 | 1.19 | 1.16 | 1.14 | 1.03 | 1.19 | 0.331 | 0.311 | 0.303 | 0.296 | 0.337 | 1.06
7 | NCI-H2405 | – | 1.14 | 0.908 | 0.852 | 0.67 | 0.656 | 0.503 | 0.713 | 0.631 | 0.691 | 0.714 | 0.766 | 0.739 | 0.539 | 1.08 | 0.914 | 0.956 | 1.2 | 0.23 | 0.905
8 | NCI-H1666 | 1.05 | 0.819 | 0.811 | 0.925 | 0.844 | 0.919 | 0.8 | 0.957 | 0.957 | 0.852 | 0.979 | 0.752 | 0.826 | 0.862 | 0.807 | 0.855 | 0.741 | 0.92 | 0.909 | 0.847
9 | NCI-H1993 | 0.776 | 0.722 | 0.69 | 0.718 | 0.632 | 0.677 | 0.488 | 0.497 | 0.525 | 0.692 | 0.781 | – | 0.858 | 0.908 | 0.578 | 0.624 | – | 0.642 | 0.636 | 0.712
10 | HCC-44 | 0.807 | 0.795 | 0.64 | 0.573 | 0.53 | 0.391 | 0.542 | 0.521 | 0.581 | 1.02 | 1.11 | 1.02 | 1.01 | 1 | 0.613 | 0.708 | 0.663 | 0.618 | 0.632 | 0.726
11 | LU99A | 0.547 | 0.513 | 0.452 | 0.435 | 0.279 | 0.276 | 0.253 | 0.322 | 0.288 | 0.257 | 0.413 | 0.355 | 0.418 | 0.375 | 0.168 | 0.175 | 0.155 | 0.165 | 0.171 | 0.516
12 | NCI-H596 | 1.19 | 1.17 | 0.997 | 0.994 | 0.714 | – | 0.724 | 1.01 | 0.689 | 0.974 | 1.14 | 0.958 | 1.25 | 1.28 | 0.456 | 0.482 | 0.51 | 0.507 | 0.544 | 1.11
13 | NCI-H1975 | 1 | 1.09 | 0.965 | 0.898 | 0.789 | 0.684 | 0.679 | 0.885 | 0.832 | 0.675 | 0.744 | 0.661 | 0.788 | 0.791 | 0.279 | 0.299 | 0.293 | 0.272 | 0.29 | 0.895
14 | NCI-H1355 | 0.827 | 0.855 | 0.806 | 0.697 | 0.395 | 0.409 | 0.299 | 0.449 | 0.386 | 0.777 | 0.778 | 0.733 | 0.797 | 0.86 | 1.01 | 1 | 0.916 | 1.11 | 1.03 | 0.799
15 | NCI-H1755 | 0.982 | 0.967 | 0.841 | 0.834 | 0.736 | 0.67 | 0.516 | 0.821 | 0.722 | 0.399 | 0.461 | 0.398 | 0.497 | 0.436 | 0.448 | 0.428 | 0.426 | 0.426 | 0.452 | 0.965
16 | NCI-H1395 | 1.25 | 1.27 | 1.13 | 0.958 | 0.653 | 0.578 | 0.552 | 0.797 | 0.677 | 0.398 | 0.373 | – | 0.409 | 0.429 | 0.718 | 0.983 | – | 1 | 0.811 | 1
